Source: ChEMBL document CHEMBL4368926, “Arylpyridines, arylpyrimidines and related compounds as potential modulator agents of the VEGF, hTERT and c-Myc oncogenes” (Bioorg Med Chem, 2019)

Assays:
HEK293 = test: Cytotoxicity against HEK293 cells assessed as decrease in cell viability after 2 days by MTT assay; assay type: ADME, cell-based; details: Homo sapiens, HEK293, 48 h
HT-29 [1] = test: Down-regulation of VEGFA protein expression in human HT-29 cells assessed as VEGFA protein level at 10 uM after 48 hrs by ELISA (reference value: 100%); assay type: functional
HT-29 [2] = test: Cytotoxicity against human HT-29 cells assessed as decrease in cell viability after 2 days by MTT assay; assay type: functional, cell-based; details: HT-29, 48 h
HT-29 [3] = test: Down-regulation of c-Myc mRNA expression in human HT-29 cells assessed as c-Myc mRNA level at 10 uM after 48 hrs by RT-qPCR analysis (reference value: 100%); assay type: functional
HT-29 [4] = test: Down-regulation of VEGFRA mRNA expression in human HT-29 cells assessed as VEGFRA mRNA level at 10 uM after 48 hrs by RT-qPCR analysis (reference value: 100%); assay type: functional
HT-29 [5] = test: Down-regulation of c-Myc protein expression in human HT-29 cells assessed as c-Myc protein level at 10 uM after 48 hrs by ELISA (reference value: 100%); assay type: functional
MCF7 = test: Cytotoxicity against human MCF7 cells assessed as decrease in cell viability after 2 days by MTT assay; assay type: functional, cell-based; details: MCF7, 48 h
[6] = Selectivity index, ratio of IC50 for HEK293 cells to IC50 for human HT-29 cells; assay type: toxicity; details: HEK293 cells versus HT-29 cells, read-out: Ratio IC50
HT-29 [7] = test: Down-regulation of hTERT mRNA expression in human HT-29 cells assessed as hTERT mRNA level at 10 uM after 48 hrs by RT-qPCR analysis (reference value: 100%); assay type: functional
[8] = Selectivity index, ratio of IC50 for HEK293 cells to IC50 for human MCF7 cells; details: HEK293 cells versus MCF7 cells

COc1cccc(N2CCCCC2)c1
IC50 (HEK293): > 400 µM | Activity (HT-29 [1]): 42% | IC50 (HT-29 [2]): 26 µM | Activity (HT-29 [3]): 63% | Activity (HT-29 [4]): 44% | Activity (HT-29 [5]): 100% | IC50 (MCF7): 160 µM | selectivity ratio [6]: 20 | Activity (HT-29 [7]): 30% | selectivity ratio [8]: 3
